Structures can show the parent of a compound that is named as a salt.
Assays:
p27 protein = conditions: reported in Tomoda K et al. J Biol Chem. 2002; cited from earlier work
K562 = experiment: Sensitivity of cell line to the tyrosine kinase inhibitor; assay type: cell-based, human
From the text: K562: human CML cell line. Expression of Bcr-Abl protein. Sensitive to Bcr-Abl inhibitor.
(§1) One to two μM STI571 was directly added to a cell culture.

MEG = experiment: as above; assay type: cell-based, human
From the text: MEG: human CML cell line. Expression of Bcr-Abl protein. Sensitive to Bcr-Abl inhibitor.
as §1

MOLM1 = experiment: as above; assay type: cell-based, human
From the text: MOLM1: human CML cell line. Expression of Bcr-Abl protein. Sensitive to Bcr-Abl inhibitor.
as §1

KYO-1 = experiment: as above; assay type: cell-based, human; conditions: KYO-1 cell line
From the text: KYO-1: human CML cell line. Expression of Bcr-Abl protein. Resistant to Bcr-Abl inhibitor. See Leukemia Research 9: 921-926, (1985).
as §1

CMK = experiment: as above; assay type: cell-based, human
From the text: CMK: human megakaryocytic leukemia cell line. No expression of Bcr-Abl protein. Resistant to Bcr-Abl inhibitor.
as §1

HEL = experiment: as above; assay type: cell-based, human
From the text: HEL: human erythrocytic leukemia cell line. No expression of Bcr-Abl protein. Resistant to Bcr-Abl inhibitor.
as §1

Row | SMILES | degradation of p27 protein by the Jab1 small complex (p27 protein) | Sensitivity to the tyrosine kinase inhibitor (K562) | Sensitivity to the tyrosine kinase inhibitor (MEG) | Sensitivity to the tyrosine kinase inhibitor (MOLM1) | Sensitivity to the tyrosine kinase inhibitor (KYO-1) | Sensitivity to the tyrosine kinase inhibitor (CMK) | Sensitivity to the tyrosine kinase inhibitor (HEL)
1 | CCC(=C/[C@H](C)C/C=C/C(C)=C/[C@@H](C)C(=O)[C@@H](C)[C@H](O)[C@@H](C)C/C(C)=C/C(=O)O)/C=C/[C@@H]1OC(=O)C=C[C@@H]1C [leptomycin B] | inhibited |  |  |  |  |  | 
2 | Cc1ccc(NC(=O)c2ccc(CN3CCN(C)CC3)cc2)cc1Nc1nccc(-c2cccnc2)n1 [tyrosine kinase inhibitor, imatinib mesylate] |  | sensitive | sensitive | sensitive | resistant | resistant | resistant

— patent US20070111267A1, “Method of determining efficacy of anticancer drug and determination kit therefor” (priority 2003, published 2007)
